Numbered stars: 1 amine (or outer) side, 2 acyl side, 3 side chain; on linkers, the order of the positions; unused ones are H or OH. Bridge positions count the residues as written; N and C are the ends. Square brackets hold non-standard residues; d marks the D form. Peptide text beside a SMILES is read from it. * marks the point of attachment. FITC = O=C1OC2(c3ccc(O)cc3Oc3cc(O)ccc32)c2ccc(NC(=S)*)cc21; dNva(5-ylidene) = O=C([C@@H](CCC=[*:3])N[*:1])[*:2]; dAllylGly = C=CC[C@@H](N)C(=O)O

The target of one assay is T1, PRMT5-MEP50 (Homo sapiens, UniProt O14744).
T1 construct: The compounds were tested by means of FP with the full-length PRMT5-MEP50 complex; made in house
T1 sequence (O14744 whole entry): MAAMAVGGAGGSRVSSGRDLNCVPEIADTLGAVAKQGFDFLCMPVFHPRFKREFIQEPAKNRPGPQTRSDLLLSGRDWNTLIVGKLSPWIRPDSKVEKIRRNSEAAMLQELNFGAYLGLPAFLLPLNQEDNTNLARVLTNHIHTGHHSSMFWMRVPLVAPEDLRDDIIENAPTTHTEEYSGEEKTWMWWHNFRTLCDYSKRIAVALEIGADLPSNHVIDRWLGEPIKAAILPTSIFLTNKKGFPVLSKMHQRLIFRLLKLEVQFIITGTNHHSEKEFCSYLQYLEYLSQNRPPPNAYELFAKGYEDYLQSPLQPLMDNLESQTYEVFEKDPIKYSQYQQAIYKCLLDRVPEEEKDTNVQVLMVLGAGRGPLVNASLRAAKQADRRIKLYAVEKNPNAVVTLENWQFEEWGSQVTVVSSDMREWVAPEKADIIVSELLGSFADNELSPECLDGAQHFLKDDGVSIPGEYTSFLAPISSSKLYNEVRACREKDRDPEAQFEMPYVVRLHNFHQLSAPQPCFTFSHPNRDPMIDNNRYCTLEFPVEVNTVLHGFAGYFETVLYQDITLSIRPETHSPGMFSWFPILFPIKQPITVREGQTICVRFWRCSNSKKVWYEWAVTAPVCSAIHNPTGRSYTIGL
T1 sequence (Q9BQA1 whole entry partner): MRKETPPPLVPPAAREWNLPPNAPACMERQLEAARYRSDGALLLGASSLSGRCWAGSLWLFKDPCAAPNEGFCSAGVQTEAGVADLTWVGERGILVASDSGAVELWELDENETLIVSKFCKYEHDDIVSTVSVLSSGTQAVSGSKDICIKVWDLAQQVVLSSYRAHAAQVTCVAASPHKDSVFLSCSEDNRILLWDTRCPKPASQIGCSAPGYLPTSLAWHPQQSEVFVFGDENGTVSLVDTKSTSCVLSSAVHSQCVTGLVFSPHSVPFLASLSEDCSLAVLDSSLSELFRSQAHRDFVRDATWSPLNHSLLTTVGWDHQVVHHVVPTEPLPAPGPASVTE
As to the kind of experiment: Direct binding fluorescence polarization (FP) assay of FITC-labeled peptides. The conditions noted are these: FITC-labeled peptide 1 nM, PRMT5-MEP50 titrated, read-out: KD. (In general: Polarisation of emitted light reports the rotation of a fluorescent probe.)
Method: The assay was performed in a buffer of 50 mM 4-(2-hydroxyethyl)-1-piperazineethanesulfonic acid (HEPES), 250 mM NaCl, 1 mM tris(2-carboxyethyl)phosphine (TCEP), and 0.01% (v/v) Tween 20, pH 8.0, in black, 384-well plates with a total volume of 10 μL per well. […] The plates were incubated at room temperature for 1 to 2 h and analyzed on a plate reader using 485 nm excitation and 535 nm emission wavelength. The assay was performed in triplicate.
Usually Kd stands for the free concentration of one partner at which half of the binding sites on the other are occupied at equilibrium, for simple one-to-one binding. Turning to `CC(C)[C@H](NC(=O)[C@H](CCCNC(=N)N)NC(=O)[C@H](CO)NC(=O)COCCOCCNC(=S)Nc1ccc2c(c1)C(=O)OC21c2ccc(O)cc2Oc2cc(O)ccc21)C(=O)N[C@H](C(=O)N1CCC[C@H]1C(=O)NC1CC=CC[C@@H](C(=O)N[C@@H](CC(=O)O)C(=O)N[C@@H](C)C(=O)N[C@@H](CC(=O)O)C(N)=O)NC(=O)[C@H](Cc2ccccc2)NC(=O)[C@H](CCC(N)=O)NC1=O)C(C)C` (stereo in doubt) [Compound 13], the Kd is 0.719 ± 0.041 µM.
The same measure, in the same setting: in the case of `CC(=O)N[C@H](C(=O)N1CCC[C@H]1C(=O)NC1CCCCC[C@@H](C(=O)N[C@@H](CC(=O)O)C(=O)N[C@@H](C)C(=O)N[C@@H](CC(=O)O)C(=O)N[C@@H](CCCCNC(=S)Nc2ccc3c(c2)C(=O)OC32c3ccc(O)cc3Oc3cc(O)ccc32)C(N)=O)NC(=O)[C@H](Cc2ccccc2)NC(=O)[C@H](CCC(N)=O)NC1=O)C(C)C` (stereo in doubt) [Compound 21] it was 0.43 ± 0.096 µM; in that of `CC(=O)NC1CCCCC[C@@H](C(=O)N[C@@H](CC(=O)O)C(=O)N[C@@H](C)C(=O)N[C@@H](CC(C(=O)O)C(=O)O)C(=O)N[C@@H](CCCCNC(=S)Nc2ccc3c(c2)C(=O)OC32c3ccc(O)cc3Oc3cc(O)ccc32)C(N)=O)NC(=O)[C@H](Cc2ccc([N+](=O)[O-])cc2)NC(=O)[C@H](CCC(N)=O)NC1=O` (stereo in doubt) [Compound 51], over 2 µM; in that of `CC(=O)N[C@H](C(=O)N1CCC[C@H]1C(=O)NC1CC=CCC[C@@H](C(=O)N[C@@H](CC(=O)O)C(=O)N[C@@H](C)C(=O)N[C@@H](CC(=O)O)C(=O)N[C@@H](CCCCNC(=S)Nc2ccc3c(c2)C(=O)OC32c3ccc(O)cc3Oc3cc(O)ccc32)C(N)=O)NC(=O)[C@H](Cc2ccccc2)NC(=O)[C@H](CCC(N)=O)NC1=O)C(C)C` (stereo partly drawn) [Compound 18], 0.352 ± 0.049 µM.

The same assay, now with this note: supplementary CSV, read-out: PRMT5-MEP50 Kd.
With `CC(C)[C@H](NC(=O)[C@H](CCCNC(=N)N)NC(=O)[C@H](CO)NC(=O)COCCOCCNC(=S)Nc1ccc2c(c1)C(=O)OC21c2ccc(O)cc2Oc2cc(O)ccc21)C(=O)N[C@H](C(=O)N1CCC[C@H]1C(=O)N[C@@H]1CC=CC[C@H](C(=O)N[C@@H](CC(=O)O)C(=O)N[C@@H](C)C(=O)N[C@@H](CC(=O)O)C(N)=O)NC(=O)[C@H](Cc2ccccc2)NC(=O)[C@H](CCC(N)=O)NC1=O)C(C)C` (single isomer, unassigned) [15 (isomer 1)], the Kd is over 2 µM.
The same measure, in the same setting: in the case of `CC(=O)N[C@H](C(=O)N1CCC[C@H]1C(=O)N[C@@H]1CC=CCC[C@@H](C(=O)N[C@@H](CC(=O)O)C(=O)N[C@@H](C)C(=O)N[C@@H](CC(=O)O)C(=O)N[C@@H](CCCCNC(=S)Nc2ccc3c(c2)C(=O)OC32c3ccc(O)cc3Oc3cc(O)ccc32)C(N)=O)NC(=O)[C@H](Cc2ccccc2)NC(=O)[C@H](CCC(N)=O)NC1=O)C(C)C` (single isomer, unassigned) [18 (isomer 1)] it was 0.352 ± 0.049 µM; in that of `CC(C)[C@H](NC(=O)[C@H](CCCNC(=N)N)NC(=O)[C@H](CO)NC(=O)COCCOCCNC(=S)Nc1ccc2c(c1)C(=O)OC21c2ccc(O)cc2Oc2cc(O)ccc21)C(=O)N[C@H](C(=O)N1CCC[C@H]1C(=O)NC1CNC(=O)C[C@@H](C(=O)N[C@@H](CC(=O)O)C(=O)N[C@@H](C)C(=O)N[C@@H](CC(=O)O)C(N)=O)NC(=O)[C@H](Cc2ccccc2)NC(=O)[C@H](CCC(N)=O)NC1=O)C(C)C` (stereo in doubt) [Compound 5], over 2 µM.
Still for that read-out and setting: in the case of `CC(C)[C@H](NC(=O)[C@H](CCCNC(=N)N)NC(=O)[C@H](CO)NC(=O)COCCOCCNC(=S)Nc1ccc2c(c1)C(=O)OC21c2ccc(O)cc2Oc2cc(O)ccc21)C(=O)N[C@H](C(=O)N1CCC[C@H]1C(=O)NC1CNC(=O)CC[C@@H](C(=O)N[C@@H](CC(=O)O)C(=O)N[C@@H](C)C(=O)N[C@@H](CC(=O)O)C(N)=O)NC(=O)[C@H](Cc2ccccc2)NC(=O)[C@H](CCC(N)=O)NC1=O)C(C)C` (stereo in doubt) [Compound 6] it was over 2 µM; in that of `CC(C)[C@H](NC(=O)[C@H](CCCNC(=N)N)NC(=O)[C@H](CO)NC(=O)COCCOCCNC(=S)Nc1ccc2c(c1)C(=O)OC21c2ccc(O)cc2Oc2cc(O)ccc21)C(=O)N[C@H](C(=O)N1CCC[C@H]1C(=O)NC1CCNC(=O)C[C@@H](C(=O)N[C@@H](CC(=O)O)C(=O)N[C@@H](C)C(=O)N[C@@H](CC(=O)O)C(N)=O)NC(=O)[C@H](Cc2ccccc2)NC(=O)[C@H](CCC(N)=O)NC1=O)C(C)C` (stereo in doubt) [Compound 7], over 2 µM; in that of `CC(C)[C@H](NC(=O)[C@H](CCCNC(=N)N)NC(=O)[C@H](CO)NC(=O)COCCOCCNC(=S)Nc1ccc2c(c1)C(=O)OC21c2ccc(O)cc2Oc2cc(O)ccc21)C(=O)N[C@H](C(=O)N1CCC[C@H]1C(=O)NC1CCNC(=O)CC[C@@H](C(=O)N[C@@H](CC(=O)O)C(=O)N[C@@H](C)C(=O)N[C@@H](CC(=O)O)C(N)=O)NC(=O)[C@H](Cc2ccccc2)NC(=O)[C@H](CCC(N)=O)NC1=O)C(C)C` (stereo in doubt) [Compound 8], over 2 µM.
Same read-out and setting: in the case of `CC(=O)N[C@H](C(=O)N1CCC[C@H]1C(=O)NC1CC=CC[C@@H](C(=O)N[C@@H](CC(=O)O)C(=O)N[C@@H](C)C(=O)N[C@@H](CC(=O)O)C(=O)N[C@@H](CCCCNC(=S)Nc2ccc3c(c2)C(=O)OC32c3ccc(O)cc3Oc3cc(O)ccc32)C(N)=O)NC(=O)[C@H](Cc2ccccc2)NC(=O)[C@H](CCC(N)=O)NC1=O)C(C)C` (stereo in doubt) [Compound 17] it was 0.452 ± 0.001 µM; in that of `CC(=O)N[C@H](C(=O)N1CCC[C@H]1C(=O)NC1CCC=CCC[C@@H](C(=O)N[C@@H](CC(=O)O)C(=O)N[C@@H](C)C(=O)N[C@@H](CC(=O)O)C(=O)N[C@@H](CCCCNC(=S)Nc2ccc3c(c2)C(=O)OC32c3ccc(O)cc3Oc3cc(O)ccc32)C(N)=O)NC(=O)[C@H](Cc2ccccc2)NC(=O)[C@H](CCC(N)=O)NC1=O)C(C)C` (stereo in doubt) [Compound 20], over 2 µM.
Turning to `CC(=O)N1CCC[C@H]1C(=O)N[C@H](C(=O)NC1CCCCC[C@@H](C(=O)N[C@@H](Cc2ccc([N+](=O)[O-])cc2)C(=O)N[C@@H](CC(C(=O)O)C(=O)O)C(=O)N[C@@H](CCC(N)=O)C(=O)N[C@@H](CCCCNC(=S)Nc2ccc3c(c2)C(=O)OC32c3ccc(O)cc3Oc3cc(O)ccc32)C(N)=O)NC(=O)[C@H](CC(=O)O)NC(=O)[C@H](C)NC1=O)C(C)C` (stereo in doubt) [Compound 52], the Kd was over 2 µM.
Still for that read-out and setting: the value for `CC(C)[C@H](NC(=O)[C@H](CCCNC(=N)N)NC(=O)[C@H](CO)NC(=O)COCCOCCNC(=S)Nc1ccc2c(c1)C(=O)OC21c2ccc(O)cc2Oc2cc(O)ccc21)C(=O)N[C@H](C(=O)N1CCC[C@H]1C(=O)N[C@@H]1CNC(=O)C[C@H](C(=O)N[C@@H](CC(=O)O)C(=O)N[C@@H](C)C(=O)N[C@@H](CC(=O)O)C(N)=O)NC(=O)[C@H](Cc2ccccc2)NC(=O)[C@H](CCC(N)=O)NC1=O)C(C)C` [Compound 9] was over 2 µM; that for `CC(C)[C@H](NC(=O)[C@H](CCCNC(=N)N)NC(=O)[C@H](CO)NC(=O)COCCOCCNC(=S)Nc1ccc2c(c1)C(=O)OC21c2ccc(O)cc2Oc2cc(O)ccc21)C(=O)N[C@H](C(=O)N1CCC[C@H]1C(=O)N[C@@H]1CNC(=O)CC[C@H](C(=O)N[C@@H](CC(=O)O)C(=O)N[C@@H](C)C(=O)N[C@@H](CC(=O)O)C(N)=O)NC(=O)[C@H](Cc2ccccc2)NC(=O)[C@H](CCC(N)=O)NC1=O)C(C)C` [Compound 10] was over 2 µM.
On the same count and under the same terms, the value for `CC(C)[C@H](NC(=O)[C@H](CCCNC(=N)N)NC(=O)[C@H](CO)NC(=O)COCCOCCNC(=S)Nc1ccc2c(c1)C(=O)OC21c2ccc(O)cc2Oc2cc(O)ccc21)C(=O)N[C@H](C(=O)N1CCC[C@H]1C(=O)N[C@@H]1CCNC(=O)C[C@H](C(=O)N[C@@H](CC(=O)O)C(=O)N[C@@H](C)C(=O)N[C@@H](CC(=O)O)C(N)=O)NC(=O)[C@H](Cc2ccccc2)NC(=O)[C@H](CCC(N)=O)NC1=O)C(C)C` [Compound 11] was over 2 µM; that for `CC(C)[C@H](NC(=O)[C@H](CCCNC(=N)N)NC(=O)[C@H](CO)NC(=O)COCCOCCNC(=S)Nc1ccc2c(c1)C(=O)OC21c2ccc(O)cc2Oc2cc(O)ccc21)C(=O)N[C@H](C(=O)N1CCC[C@H]1C(=O)N[C@@H]1CCNC(=O)CC[C@H](C(=O)N[C@@H](CC(=O)O)C(=O)N[C@@H](C)C(=O)N[C@@H](CC(=O)O)C(N)=O)NC(=O)[C@H](Cc2ccccc2)NC(=O)[C@H](CCC(N)=O)NC1=O)C(C)C` [Compound 12] was over 2 µM.
Still for that read-out and setting: the value for `CC(C)[C@H](NC(=O)[C@H](CCCNC(=N)N)NC(=O)[C@H](CO)NC(=O)COCCOCCNC(=S)Nc1ccc2c(c1)C(=O)OC21c2ccc(O)cc2Oc2cc(O)ccc21)C(=O)N[C@H](C(=O)N1CCC[C@H]1C(=O)N[C@@H]1CCCC[C@H](C(=O)N[C@@H](CC(=O)O)C(=O)N[C@@H](C)C(=O)N[C@@H](CC(=O)O)C(N)=O)NC(=O)[C@H](Cc2ccccc2)NC(=O)[C@H](CCC(N)=O)NC1=O)C(C)C` [Compound 16] was over 2 µM; that for `CC(=O)N[C@H](C(=O)N1CCC[C@H]1C(=O)N[C@@H]1CC=CCC[C@H](C(=O)N[C@@H](CC(=O)O)C(=O)N[C@@H](C)C(=O)N[C@@H](CC(=O)O)C(=O)N[C@@H](CCCCNC(=S)Nc2ccc3c(c2)C(=O)OC32c3ccc(O)cc3Oc3cc(O)ccc32)C(N)=O)NC(=O)[C@H](Cc2ccccc2)NC(=O)[C@H](CCC(N)=O)NC1=O)C(C)C` [Compound 23] was over 2 µM.
On to `CC(=O)N[C@H](C(=O)N1CCC[C@H]1C(=O)N[C@@H]1CCC=CC[C@H](C(=O)N[C@@H](CC(=O)O)C(=O)N[C@@H](C)C(=O)N[C@@H](CC(=O)O)C(=O)N[C@@H](CCCCNC(=S)Nc2ccc3c(c2)C(=O)OC32c3ccc(O)cc3Oc3cc(O)ccc32)C(N)=O)NC(=O)[C@H](Cc2ccccc2)NC(=O)[C@H](CCC(N)=O)NC1=O)C(C)C` [Compound 24] (Ac-VP[dNva(5-ylidene)]QF[dAllylGly]DADK(FITC)-NH2; staple 3-6), for which the Kd is over 2 µM.
As for `CC(=O)N[C@H](C(=O)N1CCC[C@H]1C(=O)N[C@@H]1CCCCC[C@H](C(=O)N[C@@H](CC(=O)O)C(=O)N[C@@H](C)C(=O)N[C@@H](CC(=O)O)C(=O)N[C@@H](CCCCNC(=S)Nc2ccc3c(c2)C(=O)OC32c3ccc(O)cc3Oc3cc(O)ccc32)C(N)=O)NC(=O)[C@H](Cc2ccccc2)NC(=O)[C@H](CCC(N)=O)NC1=O)C(C)C` [Compound 26], the equilibrium dissociation constant (Kd) was over 2 µM.
